Measurements reported in PMC5366886, “Structure of the Cyanuric Acid Hydrolase TrzD Reveals Product Exit Channel” (Scientific Reports, 2017).

Legend:
TrzD = target: T1, TrzD (Enterobacter cloacae, UniProt P0A3V4); test: co-crystallisation with substrate, X-ray […] A; co-product CO2 seen in density; assay type: biochemical; conditions: 10 mM cyanuric acid in drop, BIS-TRIS pH 6.5, 20 °C; Mg2+ bound in domain 3; turned over, cyanuric acid itself not reported in the model
T1 sequence (P0A3V4 1-370): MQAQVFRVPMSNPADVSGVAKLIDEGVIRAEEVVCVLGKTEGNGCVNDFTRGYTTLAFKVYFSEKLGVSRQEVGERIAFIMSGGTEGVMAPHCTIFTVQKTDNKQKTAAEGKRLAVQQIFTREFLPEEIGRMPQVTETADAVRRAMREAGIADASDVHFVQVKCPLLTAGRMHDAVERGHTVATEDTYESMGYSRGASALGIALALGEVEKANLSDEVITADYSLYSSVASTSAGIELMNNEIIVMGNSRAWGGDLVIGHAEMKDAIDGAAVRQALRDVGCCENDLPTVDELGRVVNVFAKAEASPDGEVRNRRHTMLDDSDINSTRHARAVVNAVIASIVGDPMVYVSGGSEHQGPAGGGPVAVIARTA

[1] = target: the molecule itself; test: SEC + other: dynamic light scattering; purified TrzD in solution; conditions of this experiment not told

Molecule | co-crystallisation with substrate, X-ray 2.19 A; co-product CO2 seen in density (TrzD) | stoichiometry N [1]
O=c1[nH]c(=O)[nH]c(=O)[nH]1 [cyanuric acid, 1,3,5-triazinane-2,4,6-trione] | The protein was crystallized with its natural substrate cyanuric acid by hanging drop | –
TrzD, a cyanuric acid hydrolase from Acidovorax citrulli (enzyme, UniProt P0A3V4 1-370, looked up, TrzD, cyanuric acid hydrolase of Acidovorax citrulli; full-length trzD gene in pET28b(+); 370 amino acids, ~39.5 kDa; source: E. coli BL21 (DE3), purified (Ni-NTA, Superdex-200 gel filtration); not shown: His-tag, N-terminal, kept) MQAQVFRVPMSNPADVSGVAKLIDEGVIRAEEVVCVLGKTEGNGCVNDFTRGYTTLAFKVYFSEKLGVSRQEVGERIAFIMSGGTEGVMAPHCTIFTVQKTDNKQKTAAEGKRLAVQQIFTREFLPEEIGRMPQVTETADAVRRAMREAGIADASDVHFVQVKCPLLTAGRMHDAVERGHTVATEDTYESMGYSRGASALGIALALGEVEKANLSDEVITADYSLYSSVASTSAGIELMNNEIIVMGNSRAWGGDLVIGHAEMKDAIDGAAVRQALRDVGCCENDLPTVDELGRVVNVFAKAEASPDGEVRNRRHTMLDDSDINSTRHARAVVNAVIASIVGDPMVYVSGGSEHQGPAGGGPVAVIARTA | – | 4
